Target: human MER (528-end) (Homo sapiens (Human), UniProt Q12866)
Assay: HTRF Kinase Activity Biochemical Assay (KinEASE-TK)
Conditions: 10 uM ATP
Outline: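 Activity read-out is the HTRF ratio (665 nm over 620 nm emission, ×10,000; excitation 340 nm) after 1 h detection with 0.375 nM Eu3+-cryptate anti-TK antibody plus 0.062 uM SA-XL665. Preceding kinase step: human MER (528-end), biotinylated TK substrate, 1 h, room temperature.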

human MER (528-end), sequence (Q12866 528-999 limits assumed): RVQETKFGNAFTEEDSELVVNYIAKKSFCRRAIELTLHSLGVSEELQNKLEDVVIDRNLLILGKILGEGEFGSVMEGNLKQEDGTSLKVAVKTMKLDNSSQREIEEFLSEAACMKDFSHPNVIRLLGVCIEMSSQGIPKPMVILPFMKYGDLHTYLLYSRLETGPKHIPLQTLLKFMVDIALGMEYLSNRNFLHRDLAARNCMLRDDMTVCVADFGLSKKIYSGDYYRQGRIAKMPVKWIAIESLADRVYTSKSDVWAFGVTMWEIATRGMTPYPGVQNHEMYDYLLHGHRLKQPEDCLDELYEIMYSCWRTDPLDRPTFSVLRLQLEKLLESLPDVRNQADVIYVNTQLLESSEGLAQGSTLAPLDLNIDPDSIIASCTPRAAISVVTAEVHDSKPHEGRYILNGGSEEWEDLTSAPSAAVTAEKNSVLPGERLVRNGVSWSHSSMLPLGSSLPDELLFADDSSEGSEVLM

| IC50 | Structure (SMILES) |
| --- | --- |
| > 1000 nM | CN1CCN(Cc2cccc(-c3cccc(NC(=O)N4CC[C@@H](NC(=O)c5cc(-c6cnn(C)c6)cnc5N)C4)c3)c2)CC1 [Example 267, (R)-2-amino-5-(1-methyl-1H-pyrazol-4-yl)-N-(1-((3′-((4-methylpiperazin-1-yl)methyl)-[1,1′-biphenyl]-3-yl)carbamoyl)pyrrolidin-3-yl)nicotinamide] |
| 10 to 100 nM | Nc1ncc(-c2cnn(C3CCNCC3)c2)cc1C(=O)N[C@@H]1CCN(C(=O)Nc2cc(Cl)cc(Cl)c2)C1 [Example 146, (R)-2-amino-N-(1-((3,5-dichlorophenyl)carbamoyl)pyrrolidin-3-yl)-5-(1-(piperidin-4-yl)-1H-pyrazol-4-yl)nicotinamide] |
| > 1000 nM | Cn1cc(-c2cnc(N)c(C(=O)N[C@@H]3CCN(C(=O)Oc4ccc5ncccc5c4)C3)c2)cn1 [Example 72, quinolin-6-yl (R)-3-(2-amino-5-(1-methyl-1H-pyrazol-4-yl)nicotinamido)pyrrolidine-1-carboxylate] |
| > 1000 nM | Cn1cc(-c2cnc(N)c(C(=O)N[C@@H]3CCN(C(=O)c4cccc(-c5cnn(C6CCNCC6)c5)c4)C3)c2)cn1 [Example 451, (R)-2-amino-5-(1-methyl-1H-pyrazol-4-yl)-N-(1-(3-(1-(piperidin-4-yl)-1H-pyrazol-4-yl)benzoyl)pyrrolidin-3-yl)nicotinamide] |
| > 1000 nM | CN1CCN(Cc2ccc(Oc3ccc(C(=O)N4CC[C@@H](NC(=O)c5cc(-c6cnn(C)c6)cnc5N)C4)cc3)cc2)CC1 [Example 448, (R)-2-amino-5-(1-methyl-1H-pyrazol-4-yl)-N-(1-(4-(4-((4-methylpiperazin-1-yl)methyl)phenoxy)benzoyl)pyrrolidin-3-yl)nicotinamide] |
| > 1000 nM | Cc1ccc(C(=O)N2CC[C@@H](NC(=O)c3cc(-c4cnn(C)c4)cnc3N)C2)cc1C [Example 415, (R)-2-amino-N-(1-(3,4-dimethylbenzoyl)pyrrolidin-3-yl)-5-(1-methyl-1H-pyrazol-4-yl)nicotinamide] |
| 10 to 100 nM | Cn1cc(-c2cnc(N)c(C(=O)N[C@@H]3CCN(C(=O)c4ccc(-c5ccc(Cl)cc5Cl)cc4)C3)c2)cn1 [Example 361, (R)-2-amino-N-(1-(2′,4′-dichloro-[1,1′-biphenyl]-4-carbonyl)pyrrolidin-3-yl)-5-(1-methyl-1H-pyrazol-4-yl)nicotinamide] |
| > 1000 nM | Cn1cc(-c2cnc(N)c(C(=O)N[C@@H]3CCN(C(=O)Nc4ccc(C(F)(F)F)cc4)C3)c2)cn1 [Example 6, (R)-2-amino-5-(1-methyl-1H-pyrazol-4-yl)-N-(1-((4-(trifluoromethyl)phenyl)carbamoyl)pyrrolidin-3-yl)nicotinamide] |
| 100 to 1000 nM | CC(C)(c1ccc(-c2cnc(N)c(C(=O)N[C@@H]3CCN(C(=O)c4ccc(-c5ccccc5)cc4)C3)c2)cc1)N1CCN(S(=O)(=O)c2ccccc2[N+](=O)[O-])CC1 [Example 783, (R)—N-(1-([1,1′-biphenyl]-4-carbonyl)pyrrolidin-3-yl)-2-amino-5-(4-(2-(4-((2-nitrophenyl)sulfonyl)piperazin-1-yl)propan-2-yl)phenyl)nicotinamide] |
| > 1000 nM | Cn1cc(-c2cnc(N)c(C(=O)N[C@@H]3CCN(C(=O)c4cc5cc(Cl)ccc5o4)C3)c2)cn1 [Example 403, (R)-2-amino-N-(1-(5-chlorobenzofuran-2-carbonyl)pyrrolidin-3-yl)-5-(1-methyl-1H-pyrazol-4-yl)nicotinamide] |
| > 1000 nM | Cc1ccc(C(=O)N2CC[C@@H](NC(=O)c3cc(-c4cnn(C)c4)cnc3N)C2)s1 [Example 408, (R)-2-amino-5-(1-methyl-1H-pyrazol-4-yl)-N-(1-(5-methylthiophene-2-carbonyl)pyrrolidin-3-yl)nicotinamide] |
| 100 to 1000 nM | Cn1cc(-c2cnc(N)c(C(=O)N[C@@H]3CCN(C(=O)Nc4cccc(-c5cccc(CO)c5)c4)C3)c2)cn1 [Example 264, (R)-2-amino-N-(1-((3′-(hydroxymethyl)-[1,1′-biphenyl]-3-yl)carbamoyl)pyrrolidin-3-yl)-5-(1-methyl-1H-pyrazol-4-yl)nicotinamide] |
| > 1000 nM | Cn1cc(-c2cnc(N)c(C(=O)N[C@@H]3CCN(C(=O)c4cccc(O)c4)C3)c2)cn1 [Example 515, (R)-2-amino-N-(1-(3-hydroxybenzoyl)pyrrolidin-3-yl)-5-(1-methyl-1H-pyrazol-4-yl)nicotinamide] |
| > 1000 nM | Cn1cc(-c2cnc(N)c(C(=O)N[C@@H]3CCN(C(=O)c4cccc(-c5cc6ccccc6s5)c4)C3)c2)cn1 [Example 474, (R)-2-amino-N-(1-(3-(benzo[b]thiophen-2-yl)benzoyl)pyrrolidin-3-yl)-5-(1-methyl-1H-pyrazol-4-yl)nicotinamide] |
| 100 to 1000 nM | Nc1ncc(-c2ccc(CO)cc2)cc1C(=O)N[C@@H]1CCN(C(=O)Nc2cccc(-c3ccccc3)c2)C1 [Example 256, (R)—N-(1-([1,1′-biphenyl]-3-ylcarbamoyl)pyrrolidin-3-yl)-2-amino-5-(4-(hydroxymethyl)phenyl)nicotinamide] |
| 100 to 1000 nM | CCc1ccc(OC(=O)N2CC[C@@H](NC(=O)c3cc(-c4cnn(C)c4)cnc3N)C2)cc1 [Example 93, 4-ethylphenyl (R)-3-(2-amino-5-(1-methyl-1H-pyrazol-4-yl)nicotinamido)pyrrolidine-1-carboxylate] |
| > 1000 nM | CCc1cc(CO[C@H]2CN(C(=O)c3ccc(-c4ccccc4)cc3)C[C@@H]2NC(=O)c2cc(-c3cnn(C)c3)cnc2N)ccc1C [Example 674, N-((3S,4S)-1-([1,1′-biphenyl]-4-carbonyl)-4-((3-ethyl-4-methylbenzyl)oxy)pyrrolidin-3-yl)-2-amino-5-(1-methyl-1H-pyrazol-4-yl)nicotinamide] |
| > 1000 nM | Cn1cc(-c2cnc(N)c(C(=O)N[C@@H]3CCN(c4ncc5ccccc5n4)C3)c2)cn1 [Example 137, (R)-2-amino-5-(1-methyl-1H-pyrazol-4-yl)-N-(1-(quinazolin-2-yl)pyrrolidin-3-yl)nicotinamide] |
| > 1000 nM | CC(C)Oc1cccc(NC(=O)N2CC[C@@H](NC(=O)c3cc(-c4cnn(C)c4)cnc3N)C2)c1 [Example 16, (R)-2-amino-N-(1-((3-isopropoxyphenyl)carbamoyl)pyrrolidin-3-yl)-5-(1-methyl-1H-pyrazol-4-yl)nicotinamide] |
| 100 to 1000 nM | Nc1ncc(-c2ccc(CO)cc2)cc1C(=O)N[C@@H]1CCN(C(=O)c2ccc(-c3ccccc3)cc2)C1 [Example 568, (R)—N-(1-([1,1′-biphenyl]-4-carbonyl)pyrrolidin-3-yl)-2-amino-5-(4-(hydroxymethyl)phenyl)nicotinamide] |
| 10 to 100 nM | Nc1ncc(-c2ccc(S(N)(=O)=O)cc2)cc1C(=O)N[C@@H]1CCN(C(=O)c2ccc(-c3ccccc3Cl)cc2)C1 [Example 575, (R)-2-amino-N-(1-(2′-chloro-[1,1′-biphenyl]-4-carbonyl)pyrrolidin-3-yl)-5-(4-sulfamoylphenyl)nicotinamide] |
| 100 to 1000 nM | Cn1cc(-c2cnc(N)c(C(=O)N[C@@H]3CCN(C(=O)Oc4ccc5c(c4)CCCC5)C3)c2)cn1 [Example 56, 5,6,7,8-tetrahydronaphthalen-2-yl (R)-3-(2-amino-5-(1-methyl-1H-pyrazol-4-yl)nicotinamido)pyrrolidine-1-carboxylate] |
| 10 to 100 nM | Cc1c(-c2ccc(C(=O)N3CC[C@@H](NC(=O)c4cc(-c5cnn(C)c5)cnc4N)C3)cc2)cnn1C [Example 517, (R)-2-amino-N-(1-(4-(1,5-dimethyl-1H-pyrazol-4-yl)benzoyl)pyrrolidin-3-yl)-5-(1-methyl-1H-pyrazol-4-yl)nicotinamide] |
| > 1000 nM | Cn1cc(-c2cnc(N)c(C(=O)N[C@@H]3CCN(C(=O)Oc4ccccc4OCc4ccccc4)C3)c2)cn1 [Example 58, 2-(benzyloxy)phenyl (R)-3-(2-amino-5-(1-methyl-1H-pyrazol-4-yl)nicotinamido)pyrrolidine-1-carboxylate] |
| > 1000 nM | Cn1cc(-c2cnc(N)c(C(=O)N[C@@H]3CCN(C(=O)c4ccc(-c5cnn(C6CCNCC6)c5)cc4)C3)c2)cn1 [Example 510, (R)-2-amino-5-(1-methyl-1H-pyrazol-4-yl)-N-(1-(4-(1-(piperidin-4-yl)-1H-pyrazol-4-yl)benzoyl)pyrrolidin-3-yl)nicotinamide] |

| Structure (SMILES) | IC50 |
| --- | --- |
| Cn1cc(-c2cnc(N)c(C(=O)N[C@@H]3CCN(C(=O)Oc4cccc(-c5cccc(CN6CC[C@H](N)C6)c5)c4)C3)c2)cn1 [Example 337, 3′-(((S)-3-aminopyrrolidin-1-yl)methyl)-[1,1′-biphenyl]-3-yl (R)-3-(2-amino-5-(1-methyl-1H-pyrazol-4-yl)nicotinamido)pyrrolidine-1-carboxylate] | > 1000 nM |
| CN1CC[C@@H]2CN(Cc3ccc(-c4cccc(OC(=O)N5CC[C@@H](NC(=O)c6cc(-c7cnn(C)c7)cnc6N)C5)c4)cc3)C[C@@H]21 [Example 322, 4′-(((3aR,6aR)-1-methylhexahydropyrrolo[3,4-b]pyrrol-5(1H)-yl)methyl)-[1,1′-biphenyl]-3-yl (R)-3-(2-amino-5-(1-methyl-1H-pyrazol-4-yl)nicotinamido)pyrrolidine-1-carboxylate] | 100 to 1000 nM |
| Cn1cc(-c2cnc(N)c(C(=O)N[C@@H]3CCN(C(=O)Oc4cccc(-c5ccc(CN6CCC[C@@H](N)C6)cc5)c4)C3)c2)cn1 [Example 316, 4′-(((R)-3-aminopiperidin-1-yl)methyl)-[1,1′-biphenyl]-3-yl (R)-3-(2-amino-5-(1-methyl-1H-pyrazol-4-yl)nicotinamido)pyrrolidine-1-carboxylate] | 100 to 1000 nM |
| CN1CCC(NCc2ccc(-c3cccc(OC(=O)N4CC[C@@H](NC(=O)c5cc(-c6cnn(C)c6)cnc5N)C4)c3)cc2)CC1 [Example 318, 4′-(((1-methylpiperidin-4-yl)amino)methyl)-[1,1′-biphenyl]-3-yl (R)-3-(2-amino-5-(1-methyl-1H-pyrazol-4-yl)nicotinamido)pyrrolidine-1-carboxylate] | 100 to 1000 nM |

Source: patent US12378224B2 (Dong-A Socio Holdings Co., Ltd., priority 2016, dated 2025)
